This is an account of results in ChEMBL document CHEMBL3507680, “University of Dundee, Gates Library screen for HepG2 cell viability”.

A short description of the series: Human HepG2 cell viability assay in 384 well format. The class given is toxicity, cell-based. Further details: dose 125 nL, time 70.5 hour; concentration not given beside the values. To be noted: HepG2 cells, read-out: Inhibition.
For `CC(C)(C)n1nnnc1CN(Cc1ccccc1)Cc1ccccc1Cl`, the cytotoxicity at 70.5 h is -5.12%. Then `Cc1nc(C)n(CC2CN(CC(=O)NC3CCCC3)CCO2)n1` (centres undefined), with -7.31%. The result for `CN1CCN(C(=O)c2cc3sccc3n2Cc2ccccc2F)CC1` reads -9.9%.

In the case of `O=C(CCc1nnc(-c2ccccc2)o1)N1CCCC1c1ccccn1` (centres undefined), the cytotoxicity at 70.5 h was 1.97%. Then `N#Cc1c(F)cccc1N1CCN(C(=O)Nc2nncs2)CC1`, with 11.5%; and `Cc1nn(CCn2ccnc2-c2cc3n(n2)CCCNC3)c(C)c1Cl`, with 13.8%.

With `CCc1nccc(CN2CCC(CNC(=O)c3occc3C)C2)n1` (centres undefined), the cytotoxicity at 70.5 h is -5.76%.

On to `C=C(C)CN(Cc1cccc(O)c1)C1CCC(O)CC1` (centres undefined), for which the cytotoxicity at 70.5 h is -6.84%. The result for `CS(=O)(=O)c1ccc(OCCNCc2cccc(Cl)c2)cc1` reads 23.8%. Regarding `CCc1ccc(CNc2ccccc2CN2CCC(O)CC2)o1`, the cytotoxicity at 70.5 h was -9.23%. The result for `CCc1ccsc1C(=O)N1CCN(CC(O)CC)CC1` (centres undefined) reads 6.44%; that for `COc1cc(F)ccc1C(C(=O)O)N(C)CCN1CCOCC1` (centres undefined), 15.1%. Regarding `CNc1snc(C)c1C(=O)N1CCCC(n2cccn2)C1` (centres undefined), the cytotoxicity at 70.5 h is -15%. Then `COc1nc2c(cc1C(=O)NCCCc1nnc(N)s1)CCC2`, with -1.23%. The result for `O=C(c1cncs1)N1CCC(Cc2cnc3[nH]ccc3c2)CC1` reads 15.3%; that for `CC(NC(=O)CNS(C)(=O)=O)c1ccccc1Oc1ccccc1` (centres undefined), -7.15%. The result for `Cc1ccc(CN2CCC3(CCC3NS(=O)(=O)c3ccccc3)CC2)o1` (centres undefined) reads 8.23%; that for `COCC(C)N1CCc2onc(-c3ccc(F)c(F)c3)c2C1` (centres undefined), -1.71%; that for `O=C(c1ccncc1)N1CCN(c2ccc(F)cc2Cl)CC1`, 18.4%. Regarding `Cc1cc(-c2nn(C)c(Cl)c2CN2CCOCC2CC(=O)O)no1` (centres undefined), the cytotoxicity at 70.5 h is -7.35%. For `COCc1nc(C(=O)N2CCCC2c2ccc(OC)cc2)cs1` (centres undefined), the cytotoxicity at 70.5 h is -14.3%. On to `COCC1CC2(CCN(C(=O)c3occc3C)CC2)CO1` (centres undefined), for which the cytotoxicity at 70.5 h was -6.11%.

With `Cc1ccc(-n2nnc(C(=O)NCC3(CO)CC3)c2C2CC2)cc1`, the cytotoxicity at 70.5 h was -4.67%. As for `Cc1cnn(C2CCCN(C(=O)Cc3ccc4c(c3)CCO4)C2)c1` (centres undefined), the cytotoxicity at 70.5 h was 13.9%.

Turning to `Cn1cc(N2CC3(CCN(CC4CCC4)CC3)OCC2=O)cn1`, the cytotoxicity at 70.5 h was -7.64%. The result for `CCN1N=C(C(=O)N2CCCC(c3nc(C)cs3)C2)CCC1=O` (centres undefined) reads -2.03%.

In the case of `Cc1cc(C[C@@H]2COC[C@@H]2NC(=O)CN2CCCN(C)CC2)on1`, the cytotoxicity at 70.5 h was -7.54%. The result for `CCn1cnnc1CN(C)c1nccc(C2CCCC2)n1` reads -7.13%; that for `O=c1c2cccc(Cl)c2ncn1C1CCNC1` (centres undefined), -10.4%. As to `C[C@@H]1CN(C(=O)c2ccc(C#N)nc2)C[C@@]1(O)C1CC1`, the cytotoxicity at 70.5 h is 13.9%. Regarding `CCN(CC)c1ccc(CNC(=O)c2cccc(C)n2)cn1`, the cytotoxicity at 70.5 h stood at 11.5%. Then `OCC1CCCCN1Cc1nc(Cc2ccccc2)no1` (centres undefined), with -3.62%. Then `Cc1nc(CN2C(=O)C[C@@H]3[C@@H]2CCN3Cc2cnn(C)c2)cs1`, with -15.4%; and `CCC(Cn1ccnc1)n1cnc2scc(C)c2c1=O` (centres undefined), with 13.9%; and `c1cncc(CN2CCCn3nnc(CN4CCCC4)c3C2)c1`, with -64.2%. Then `Cc1cc(C(=O)N2CCCC(C)C2)ccc1NCc1nc(C(C)C)no1` (centres undefined), with -9.64%; and `CS(=O)(=O)C1CCN(S(=O)(=O)c2ccc(F)c(F)c2)C1` (centres undefined), with -5.07%; and `Cn1ccnc1CN1CCC2(CC1)CN(CC1CC1)C(=O)CO2`, with 12.3%. Take `CO[C@H]1CN(S(=O)(=O)c2ccccc2F)C[C@@]12CCCO2`: the cytotoxicity at 70.5 h is -7.14%. Take `CCn1ncc(C(=O)NCCc2nc(-c3ccncc3)n[nH]2)c1C`: the cytotoxicity at 70.5 h is -7.04%. The result for `CCN(CC1CCOC1)S(=O)(=O)Cc1ccccc1Cl` (centres undefined) reads -6.21%; that for `CN(C)CCOCc1cncc2c1CCN(C1CCOCC1)C2`, -11.2%; that for `O=C(CN1CC(c2nc(-c3ccco3)no2)C1)NCCc1ccccc1`, -11.2%. Then `O=C1CC(c2ccc(CO)o2)c2cnn(Cc3ccco3)c2N1` (centres undefined), with -7.94%; and `CN(C)c1cc(C2CCCNC2)ccn1` (centres undefined), with 4.83%.

Take `COc1ccccc1Cc1cncc(N2CC(C(=O)O)C2)n1`: the cytotoxicity at 70.5 h is -13.5%.

For the compound `Cc1nc(N2CCOc3ccc(CO)cc3C2)c2c(C)noc2n1`, the cytotoxicity at 70.5 h was -2.39%. Take `Cn1cc(CCCNC(=O)NC2CCN(CC(F)(F)F)C2=O)cn1` (centres undefined): the cytotoxicity at 70.5 h is -3.21%.

Regarding `CNC(=O)N1C[C@H]2C[C@H](C(=O)Nc3cccnc3)[C@@H](C1)O2`, the cytotoxicity at 70.5 h is -2.82%.

In the case of `O=C(c1ccco1)N1Cc2nccn2CC(Cn2ncccc2=O)C1` (centres undefined), the cytotoxicity at 70.5 h is -6.66%.

In the case of `CCN(Cc1cccc(F)c1)c1ccc2nnnn2n1`, the cytotoxicity at 70.5 h is -1.32%. The result for `CCC(CO)N(Cc1ccccn1)Cc1c[nH]nc1-c1ccc(F)cc1` (centres undefined) reads -6.02%. The result for `CCOCCN1CCN(C(C)C(=O)Nc2ccnn2C(C)C)CC1` (centres undefined) reads -3.46%; that for `COc1cc(F)c(-n2cnc(CCNC(C)=O)c2)cc1F`, -10.8%. The result for `Cc1cc(C)nc(N2CCCC(C)(c3[nH]ncc3C(=O)N(C)C)C2)n1` (centres undefined) reads -4.44%. In the case of `COCc1nc(C(=O)NS(=O)(=O)c2cc(C)ccc2C)cs1`, the cytotoxicity at 70.5 h came out at 3.09%. The result for `CN(Cc1nc2ccccc2o1)C1CCCN(c2cccnn2)C1` (centres undefined) reads 4.68%; that for `CC[C@H]1COCCN1C(=O)c1cnc(-c2ccccc2)nc1C`, -5.37%; that for `CN(Cc1ccc(F)cc1)C(=O)CN1CCOC(Cn2cccn2)C1` (centres undefined), 0.224%. The result for `Cc1csc(N2CCN(CCc3ccccn3)CC2C)n1` (centres undefined) reads -10.7%. The result for `Cc1ccc(N2CCCC(NCC(=O)Nc3cc(C)nn3C)C2)nn1` (centres undefined) reads -4.79%. `Cc1ccc(CN2CCN(c3cncc(N(C)C)n3)CC2=O)cc1C`: the cytotoxicity at 70.5 h was -7.53%. Then `CO[C@@H]1CCN(C(=O)Cc2cccc(F)c2)[C@H]1Cc1cccnc1`, with -3.88%; and `COc1ccc(NC(=O)c2cc3c([nH]c2=O)CCCC3=O)c(OC)c1`, with -10.9%. The result for `COc1ccc(CNC(=O)NC(C)(CO)C2CC2)c(C(F)(F)F)c1` (centres undefined) reads 0.673%. Then `CC(C)(CCS(C)(=O)=O)CNC(=O)NC1CCCCC1(C)C` (centres undefined), with 28%; and `CCSCCNC(=O)C(c1cccc(C)c1)N(C)C` (centres undefined), with 35.5%. As for `O=C(Cc1n[nH]c(-c2cncc(Br)c2)n1)NCc1ccncc1`, the cytotoxicity at 70.5 h is -9.88%. Then `CCn1cc(N2Cc3nc(N4CCC(O)CC4)ncc3C2=O)cn1`, with 2.23%. The result for `CC(C)Cc1cc(C(=O)NCCc2nnc(N)s2)n(C)n1` reads -23.5%; that for `O=C(CCn1cccn1)N1CCC(C2CCN(c3ncccn3)CC2)C1` (centres undefined), -6.6%. For the compound `Cc1noc(C2CCN(C(=O)CCc3nccs3)CC2)n1`, the cytotoxicity at 70.5 h amounted to 21.5%. Take `CCn1nccc1CNC(=O)CCC1CCCC1`: the cytotoxicity at 70.5 h amounted to 18.7%. The result for `Cc1csc2nc3n(c(=O)c12)CCN(C(=O)c1ccncc1)CC3` reads -7.78%; that for `O=C(c1cc2c(s1)CCC2)N1CCN(c2cnccn2)CC1`, -14.9%. Then `Cc1cccc(C2(NC(=O)CCN3C(=O)CCC3=O)CCCC2)c1`, with -6.61%; and `Cc1cc(N2CCCC(O)CC2)n2nc(C)c(C)c2n1` (centres undefined), with 1.18%; and `N#Cc1cccc(C(=O)N2CC(c3nc(-c4ccc[nH]c4=O)no3)C2)c1`, with -1.92%. Then `CNc1cc2c(nn1)CCN(C(=O)c1ccccc1-n1cccn1)C2`, with 47.8%; and `c1cncc(COCC2CN(Cc3ccncc3)Cc3ccnn3C2)c1` (centres undefined), with 1.86%; and `O=C(Cc1cccs1)NS(=O)(=O)c1cccc2cnccc12`, with -116%. Take `CCNC(=O)N(C)C(c1cccnc1)C(C)C` (centres undefined): the cytotoxicity at 70.5 h was -9.88%. Then `CCn1ccnc1CN1CCN(CCCS(C)(=O)=O)CC1C` (centres undefined), with 12.1%.

As to `C[C@@H](NCc1cccc(Cl)c1)c1onc(-c2ccc(F)cc2)c1C(=O)O`, the cytotoxicity at 70.5 h is -2.58%.

`CN(C(=O)Cn1nc(-c2ccccc2Cl)ccc1=O)C1CCS(=O)(=O)C1` (centres undefined): the cytotoxicity at 70.5 h was -18.5%. As for `O=C(c1[nH]nc(C2CC2)c1Cl)N1CCN(C2CC2)C(=O)C1`, the cytotoxicity at 70.5 h is -1.73%.

In the case of `Cc1noc(C)c1CN1CC2(CCN(C(=O)c3ccc[nH]3)C2)CC1=O` (centres undefined), the cytotoxicity at 70.5 h was -6.16%. With `CC(=O)Nc1nc(C2CCN(C(C)=O)CC2)cs1`, the cytotoxicity at 70.5 h was -22%. The result for `Cc1nnsc1CN1C[C@@H]2CC[C@H](C1)N(Cc1ccccc1)C2` reads 8.69%. Turning to `CN(C)CCC1CCCCN1Cc1cnc(-c2ccccn2)nc1` (centres undefined), the cytotoxicity at 70.5 h is -3.63%. Then `Cc1ccc(C(=O)Nc2ccc(S(=O)(=O)/N=C3\CCCN3C)cc2)s1`, with -10%; and `Cc1oncc1C(=O)N1CC[C@H]2C[C@H](c3ccncn3)O[C@@H]2C1`, with 7.58%. The result for `Cn1c(CN2CCC(O)CC2)nnc1C1CCCN(c2ccncc2)C1` (centres undefined) reads -9.58%; that for `Cc1ccc(C(=O)N2CCc3ncnc(C)c3CC2)cn1`, -4.87%. For the compound `CCNc1cc2c(nn1)CCN(C(=O)C1Cc3ccccc3S1)C2` (centres undefined), the cytotoxicity at 70.5 h was -6.84%.

With `O=C(CSc1ccncc1)N1C[C@H]2CC[C@@H]1CN(Cc1cccnc1)C2`, the cytotoxicity at 70.5 h is -2.1%. The result for `CCN1CC2(CCN(C(=O)C(C)Oc3cccc(Cl)c3)CC2)OC1=O` (centres undefined) reads -11.6%; that for `CN1CCC(N2CCC(c3ccccc3C(=O)O)C2)CC1` (centres undefined), -0.525%; that for `COc1ccc(-n2cnnc2SCCC#N)cn1`, -4.7%.
